Laboratory results from ChEMBL document CHEMBL5137003, “Recent advancement in small molecules as HCV inhibitors” (Bioorg Med Chem, 2022).

What was measured:
[1] = test system: Internal ribosome entry site (IRES); assay: Disruption of hepatitis C virus-internal ribosome entry site (IRES) RNA base stacking interaction; set-up: species or system Hepacivirus hominis
[2] = Inhibition of Hepatitis C virus NS3 helicase measured by DNA unwinding based assay; set-up: species or system Hepacivirus hominis
[3] = Inhibition of Cy5-dT15 ssDNA to Hepatitis C virus subtype 1b (Con1) NS3 helicase measured by fluorescence polarization (FP) based ssDNA binding assay; set-up: species or system Hepacivirus hominis
Hepatitis C virus [4] = assay: Antiviral activity against HCV JFH-1 infected in Huh7.5.1 cells assessed as decrease in intracellular and extracellular HCV RNA level measured after 3 days by RT-qPCR assay; assay type: functional, organism-based, Hepacivirus hominis; conditions: JFH-1, Huh-7.5.1, 72 h
Hepatitis C virus [5] = assay: Antiviral activity against HCV assessed as inhibition of viral fusion and replication at attachment stage; assay type: functional, organism-based, Hepacivirus hominis
Hepatitis C virus [6] = assay: Antiviral activity against HCV infected in Huh-7.5.1 cells assessed as inhibition of HCV production measured after 24 hrs by titration assay; assay type: functional, organism-based, Hepacivirus hominis; conditions: Huh-7.5.1, 24 h
Hepatitis C virus [7] = assay: Inhibition of HCV replication in human Huh7.5 cells cultured with SGR-Neo-RLuc-JFH1-2A replicon celIs measured after 72 hrs by luciferase assay; assay type: functional, cell-based, Hepacivirus hominis; conditions: JFH-1, Huh7.5, 72 h
[8] = target: T1, Hepatitis C virus serine protease, NS3/NS4A (Hepatitis C virus, UniProt A3EZI9+D2K2A8); assay: Inhibition of HCV GT-3a NS3/4A protease measured by fluorescence assay; assay type: protein-complex assay, Hepacivirus hominis, subtype 3a
Hepatitis C virus [9] = assay: Antiviral activity against HCV GT-1a expressing NS5B S365A mutant variant; assay type: functional, organism-based, Hepacivirus hominis; conditions: subtype 1a
Hepatitis C virus [10] = assay: Antiviral activity against HCV GT-1a expressing NS5B C316Y mutant variant; assay type: functional, organism-based, Hepacivirus hominis; conditions: subtype 1a
Hepatitis C virus [11] = assay: Inhibition of HCV replication; assay type: functional, Hepacivirus hominis
Hepatitis C virus [12] = assay: Antiviral activity against HCV GT-3a; assay type: functional, organism-based, Hepacivirus hominis; conditions: subtype 3a
Hepatitis C virus [13] = assay: Antiviral activity against HCV JFH-1 infected in Huh7.5 cells and measured after 4 days; assay type: functional, organism-based, Hepacivirus hominis; conditions: JFH-1, Huh7.5, 96 h
Hepatitis C virus [14] = assay: Inhibition of HCV replication in human Huh7.5 cells after 3 hrs by renilla luciferase assay; assay type: functional, cell-based, Hepacivirus hominis; conditions: Huh7.5, 3 h
Hepatitis C virus [15] = assay: Antiviral activity against HCV GT-1b infected in Huh-5-2 cells and measured after 24 hrs by luciferase assay; assay type: functional, organism-based, Hepacivirus hominis; conditions: subtype 1b, Huh-5-2, 24 h
Hepatitis C virus [16] = assay: Antiviral activity against HCV GT-3a (S52) assessed as inhibition of viral replication measured by renilla luciferase assay; assay type: functional, organism-based, Hepacivirus hominis; conditions: subtype 3a
Hepatitis C virus [17] = assay: Antiviral activity against HCV GT-4a; assay type: functional, organism-based, Hepacivirus hominis; conditions: subtype 4a
Hepatitis C virus [18] = assay: Antiviral activity against HCV GT-3a infected in Huh-5-2 cells and measured after 72 hrs by luciferase assay; assay type: functional, organism-based, Hepacivirus hominis; conditions: subtype 3a, Huh-5-2, 72 h
Hepatitis C virus [19] = assay: Antiviral activity against HCV GT-1b infected in Huh-5-2 cells and measured after 72 hrs by luciferase assay; assay type: functional, organism-based, Hepacivirus hominis; conditions: subtype 1b, Huh-5-2, 72 h
Hepatitis C virus [20] = assay: Antiviral activity against HCV GT-1b; assay type: functional, organism-based, Hepacivirus hominis; conditions: subtype 1b
Hepatitis C virus [21] = assay: Inhibition of HCV replicon cells; assay type: functional, Hepacivirus hominis
[22] = Inhibition of hepatitis C virus p7 ion channel; set-up: species or system Hepacivirus hominis
[23] = target: T1, Hepatitis C virus serine protease, NS3/NS4A; assay: Inhibition of HCV GT-3a NS3/4A protease; assay type: protein-complex assay, Hepacivirus hominis, subtype 3a
[24] = Inhibition of Hepatitis C virus NS3 protease; set-up: species or system Hepacivirus hominis
[25] = target: RNA-directed RNA polymerase (Hepacivirus hominis, UniProt O39930); assay: Inhibition of Hepatitis C virus NS5B RNA-dependent-RNA-polymerase
[26] = target: T1, Hepatitis C virus serine protease, NS3/NS4A; assay: Inhibition of HCV GT1b recombinant NS3/4A protease using Ac-Glu-Glu-Val-Val-Ala-Cys-AMC as substrate and measured by fluorescence based assay; assay type: protein-complex assay, Hepacivirus hominis, subtype 1b
[27] = Inhibition of HCV GT1b full-length NS3/4A protease D168A mutant using Ac-Glu-Glu-Val-Val-Ala-Cys-AMC as substrate and measured by fluorescence based assay; set-up: species or system Hepacivirus hominis, subtype 1b
[28] = target: T1, Hepatitis C virus serine protease, NS3/NS4A; assay: Inhibition of HCV GT-1b NS3/4A protease measured by fluorescence assay; assay type: protein-complex assay, Hepacivirus hominis, subtype 1b

In the case of `CN1CCN(CCCNc2nc3cc([N+](=O)[O-])ccc3nc2NCc2ccc(NC(=O)/C=C/c3ccc(N(C)C)cc3)cc2)CC1`, the EC50 [1] is reported as 67000 nM.
With `COc1ccc2c(c1)c(C=C1C(=O)NC(=S)NC1=O)cn2C(=O)c1ccc2ccccc2c1` the IC50 [2] was 21400 nM.
For `CCCCC(O)c1cccc(=O)o1` (stereo not drawn), the IC50 [3] was 2800 nM.
Compound `Cc1cc(Oc2ccc(N)cn2)ccc1Cl` has an EC50 (Hepatitis C virus [4]) of 80 nM.
Compound `COc1ccc2cc3[n+](cc2c1OC)CCc1cc2c(cc1-3)OCO2` [BERBERINE] has an EC50 (Hepatitis C virus [5]) of 7870 nM.
Work on `CC1(NCc2nnc(-c3cc(O)cc(O)c3)[nH]2)C2CC3CC(C2)CC1C3` (stereo not drawn) yielded an IC50 (Hepatitis C virus [6]) of 6420 nM.
Work on `O=C1NC(=S)NC(=O)C1=Cc1cn(C(=O)c2ccc3ccccc3c2)c2ccccc12` yielded an IC50 [2] of 21600 nM.
In the case of `O=C(Nc1ccc(C2=NCCN2)cc1)c1cc(C(=O)Nc2ccc(C3=NCCN3)cc2)cc(C(=O)Nc2ccc(C3=NCCN3)cc2)c1`, the IC50 (Hepatitis C virus [7]) is reported as 14000 nM.
With `Cc1ccc(S(=O)(=O)Nc2ccccc2C(=O)Nc2nc3c(Cl)ccc(Cl)c3s2)cc1` the IC50 [8] was 1600 nM.
With `CNC(=O)c1c(-c2ccc(F)cc2)oc2cc(N(C)S(C)(=O)=O)c(-c3ccc4c(n3)-c3cc5c(F)cccc5n3CO4)cc12` [MK-8876] the EC50 (Hepatitis C virus [9]) was 1 nM and the EC50 (Hepatitis C virus [10]) was 2.3 nM.
`CCN(CC)c1ccc(Oc2ccc(-c3[nH]c4cccc(F)c4c(=O)c3C)cc2F)cc1` gave an EC50 (Hepatitis C virus [11]) of 5 nM.
`COC(=O)N[C@H](C(=O)N1CCC[C@H]1c1nc(C#CC#Cc2ccc(-c3c[nH]c([C@@H]4CCCN4C(=O)[C@@H](NC(=O)OC)C(C)C)n3)cc2)c[nH]1)C(C)C` showed an EC50 (Hepatitis C virus [12]) of 2.45 nM.
Compound `CCC[C@H](NC(=O)[C@@H]1[C@H]2CCC[C@H]2CN1C(=O)[C@@H](NC(=O)[C@@H](NC(=O)c1cnc(C(=O)NCCOCCOCCOc2cc3c4c(cccc4c2)C(=O)N(C2CCC(=O)NC2=O)C3=O)cn1)C1CCCCC1)C(C)(C)C)C(=O)C(=O)NC1CC1` (stereo partly drawn) has an IC50 (Hepatitis C virus [13]) of 748 nM.
Work on `O=C(NCc1ccco1)c1ccc2[nH]c(COc3ccc(C45CC6CC(CC(C6)C4)C5)cc3)nc2c1` yielded an EC50 (Hepatitis C virus [14]) of 1500 nM.
For `CCOC(=O)N[C@@H](CC(C)C)C(=O)N1CCC[C@H]1C(=O)Nc1cccc(C#CC#Cc2cccc(NC(=O)[C@@H]3CCCN3C(=O)[C@H](CC(C)C)NC(=O)OCC)c2)c1`, the EC50 (Hepatitis C virus [15]) was 0.0399 nM.
Compound `CC(C)(C)OC(=O)c1c(NC(=O)NCc2c(C(F)(F)F)sc3c2CCNC3)sc2c1CCCC2` has an EC50 (Hepatitis C virus [16]) of 0.21 nM.
`COC(=O)N[C@H](C(=O)N1CCC[C@H]1C(=O)Nc1ccc([C@@H]2CC[C@@H](c3ccc(NC(=O)[C@@H]4CCCN4C(=O)[C@@H](NC(=O)OC)C(C)C)cc3)N2c2ccc(C(C)(C)C)cc2)cc1)C(C)C` [OMBITASVIR] showed an EC50 (Hepatitis C virus [17]) of 0.00171 nM.
For `CCOC(=O)N[C@@H](C(=O)N1CCC[C@@H]1C(=O)Nc1ccc2c(c1)Cc1cc(NC(=O)[C@H]3CCCN3C(=O)[C@H](NC(=O)OCC)c3ccccc3)ccc1-2)c1ccccc1`, the EC50 (Hepatitis C virus [18]) was 1.2 nM and the EC50 (Hepatitis C virus [19]) was 0.036 nM.
In the case of `O=C(N[C@@H](C(=O)N1CCC[C@H]1c1ncc(-c2ccc(-c3ccc(-c4cnc([C@@H]5CCCN5C(=O)[C@H](NC(=O)C5CC5)c5ccccc5)s4)cc3)cc2)s1)c1ccccc1)C1CC1`, the EC50 (Hepatitis C virus [20]) is reported as 0.003 nM.
Work on `O=C(Nc1ccn([C@@H]2O[C@H](CO)[C@@H](O)C2(F)F)c(=O)n1)C1Cc2ccccc2C1` yielded an IC50 (Hepatitis C virus [21]) of 10 nM.
With `O=C1CCC(C23CC4CC(CC(C4)C2)C3)=NN1c1ccccc1` the IC50 [22] was 520 nM.
`[2H]C([2H])([2H])Oc1cc2ccnc(O[C@@H]3C[C@H]4C(=O)N[C@]5(C(=O)NS(=O)(=O)C6(C)CC6)C[C@H]5/C=C/CC[C@@H](C)C[C@@H](CC)[C@H](NC(=O)OC(C)(C)C(F)(F)F)C(=O)N4C3)c2cc1F` gave an IC50 [23] of 4.8 nM.
`COc1ccc(N/C=C2\C(=O)N(Cc3ccccc3)c3ccccc32)cc1` showed an EC50 (Hepatitis C virus [12]) of 738 nM.
`CCCCOC(=O)N[C@H](C(=O)N1CCC[C@H]1C(=O)Nc1ccc(-c2ccc(NC(=O)[C@@H]3CCCN3C(=O)[C@@H](NC(=O)OCCCC)c3ccccc3)cc2)cc1)c1ccccc1` gave an EC50 (Hepatitis C virus [20]) of 0.0067 nM.
In the case of `COc1ccc2c(c1)c(C=C1C(=O)NC(=S)NC1=O)cn2C(=O)c1cccc2ccccc12`, the IC50 [2] is reported as 23500 nM.
In the case of `O=C(O[C@@H]1O[C@@H]2COC(=O)c3cc(O)c(O)c(O)c3-c3c(cc(O)c(O)c3O)C(=O)O[C@H]([C@H]1O)[C@@H]2O)c1cc(O)c(O)c(O)c1` [CORILAGIN], the IC50 [24] is reported as < 1000 nM and the IC50 [25] is reported as 20000 nM.
For `CC(C)c1ccc(NC(=O)N[C@@H](Cc2c[nH]c3ccccc23)C(=O)NCCCN2CCCCC2)cc1`, the IC50 [26] was 4600 nM and the IC50 [27] was 5980 nM.
Compound `COC(=O)N[C@H](C(=O)N1CCC[C@H]1c1ncc(-c2ccc(C#CC#Cc3cnc([C@@H]4CCCN4C(=O)[C@H](NC(=O)OC)c4ccccc4)[nH]3)c(-c3cccc(F)c3F)c2)[nH]1)C(C)C` has an IC50 (Hepatitis C virus [12]) of 0.016 nM.
`Cc1cc(NC(=O)Cc2csc(NS(=O)(=O)c3ccccc3)n2)ccc1Br` gave an IC50 [28] of 2200 nM.
